pIC50: −log10 of the molar value.

The values that follow come from patent US9447087B2, “Galactokinase inhibitors for the treatment and prevention of associated diseases and disorders” (UNIVERSITY OF UTAH RESEARCH FOUNDATION, priority 2011, dated 2016).

In this experiment the target is GALK (Homo sapiens (Human), UniProt P51570). Put plainly: primary qHTS assay for inhibitors of GALK (KinaseGlo ATP depletion). The format is biochemical. Details: GALK Assay Efficacy: unit not given here. The note with it: 5 nM GALK, 35 μM ATP, 1 hr incubation. As to the method: Assay details and protocol: The primary assay monitored ATP depletion using Promega's KinaseGlo™ technology, where ATP levels are measured through luminescence generated from firefly luciferase, a bioluminescent ATP-dependent enzymes. […] This was used as the positive control for the assay. […]
Chain of GALK (P51570 whole entry): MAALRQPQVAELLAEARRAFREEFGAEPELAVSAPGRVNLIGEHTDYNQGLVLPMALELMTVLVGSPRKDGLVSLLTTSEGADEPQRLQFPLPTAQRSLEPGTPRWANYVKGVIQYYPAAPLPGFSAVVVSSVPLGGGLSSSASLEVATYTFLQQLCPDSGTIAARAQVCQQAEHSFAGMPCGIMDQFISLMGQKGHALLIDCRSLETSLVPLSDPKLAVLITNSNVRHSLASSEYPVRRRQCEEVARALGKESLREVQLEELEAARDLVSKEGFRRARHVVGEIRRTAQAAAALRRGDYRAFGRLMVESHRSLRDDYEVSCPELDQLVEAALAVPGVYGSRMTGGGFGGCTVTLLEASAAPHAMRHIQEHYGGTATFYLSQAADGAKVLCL

As to `CC1(C)N=C(Nc2nc3ccccc3o2)NC2=C1C(=O)CCC2` [Compound 5], the pIC50 is 4.49.

`CC1(C)CC(=O)C2=C(C1)NC(Nc1nc3ccccc3o1)=NC21CCCCC1` [Compound 7] gave a pIC50 of 5.29.

`O=C1CCCC2=C1[C@@]1(CCC(c3ccccc3)C1)N=C(Nc1nc3ccccc3o1)N2` (stereo partly drawn) [Compound 12]: the pIC50 was 4.33.

For `CC1CCC2(C1)N=C(Nc1nc3ccccc3o1)NC1=C2C(=O)CCC1` (stereo not drawn) [Compound 14], the pIC50 is 4.93.

The molecule `O=C1CCC2=C1C(c1ccccc1Cl)N=C(Nc1nc3ccccc3o1)N2` (stereo not drawn) [Compound 16] had a pIC50 of 5.03.

In turn, `O=C1CCCC2=C1C(c1ccccc1Cl)N=C(Nc1nc3ccccc3o1)N2` (stereo not drawn) [Compound 17] had a pIC50 of 6.23.

For `O=C1CCCC2=C1C1(CCSC1)N=C(Nc1nc3ccccc3o1)N2` (stereo not drawn) [Compound 21], the pIC50 is 5.58.

Regarding `O=C1CCCC2=C1C1(CCSCC1)N=C(Nc1nc3ccccc3o1)N2` [Compound 22], the pIC50 was 5.98.

`O=C1CCCC2=C1C1(CCCOC1)N=C(Nc1nc3ccccc3o1)N2` (stereo not drawn) [Compound 23] showed a pIC50 of 4.48.

Turning to `O=C1CCCC2=C1C1(CCS(=O)(=O)C1)N=C(Nc1nc3ccccc3o1)N2` (stereo not drawn) [Compound 24, 2-(benzo[d]oxazol-2-ylamino)-4′,5′,7,8-tetrahydro-1H,2′H-spiro[quinazoline-4,3′-thiophen-1,1-dioxide]-5(6H)-one], the “GALK Assay Efficacy” value worked out at 67.583 and the pIC50 is 5.18.

`O=C1CCCC2=C1C(c1cccc(Cl)c1)N=C(Nc1nc3ccccc3o1)N2` (stereo not drawn) [Compound 37] gave a pIC50 of 4.21.

Regarding `O=C1CCCC2=C1C(c1ccc(Cl)cc1)N=C(Nc1nc3ccccc3o1)N2` (stereo not drawn) [Compound 38], the pIC50 is 4.16.

In turn, `O=C1CCCC2=C1C(c1ccccc1C(F)(F)F)N=C(Nc1nc3ccccc3o1)N2` (stereo not drawn) [Compound 39] gave a pIC50 of 4.91.

Regarding `O=C1CCCC2=C1C(c1cccc(C(F)(F)F)c1)N=C(Nc1nc3ccccc3o1)N2` (stereo not drawn) [Compound 40], the pIC50 was 4.78.

`O=C1CCCC2=C1C(c1ccccc1Br)N=C(Nc1nc3ccccc3o1)N2` (stereo not drawn) [Compound 41] showed a pIC50 of 6.13.

On to `O=C1CCCC2=C1C(c1cccc(F)c1)N=C(Nc1nc3ccccc3o1)N2` (stereo not drawn) [Compound 42], for which the pIC50 is 4.16.

As for `COc1ccccc1C1N=C(Nc2nc3ccccc3o2)NC2=C1C(=O)CCC2` (stereo not drawn) [Compound 43], the pIC50 was 4.31.

As for `COc1cccc(C2N=C(Nc3nc4ccccc4o3)NC3=C2C(=O)CCC3)c1` (stereo not drawn) [Compound 44], the pIC50 is 4.73.

In turn, `COc1ccc(C2N=C(Nc3nc4ccccc4o3)NC3=C2C(=O)CCC3)cc1` (stereo not drawn) [Compound 45] gave a negative logarithm of the IC50 (pIC50) of 4.21.

As for `Cc1cccc(C2N=C(Nc3nc4ccccc4o3)NC3=C2C(=O)CCC3)c1` (stereo not drawn) [Compound 46], the pIC50 is 4.21.

On to `Cc1ccc(C2N=C(Nc3nc4ccccc4o3)NC3=C2C(=O)CCC3)cc1` (stereo not drawn) [Compound 47], for which the pIC50 is 4.21.

As to `Cc1ccc(C2N=C(Nc3nc4ccccc4o3)NC3=C2C(=O)CCC3)s1` (stereo not drawn) [Compound 48], the pIC50 is 4.21.

As for `O=C1CCCC2=C1C(c1ccncc1)N=C(Nc1nc3ccccc3o1)N2` (stereo not drawn) [Compound 50], the negative logarithm of the IC50 (pIC50) is 4.38.

As to `O=C1CCCC2=C1C(c1ccc(F)cc1)N=C(Nc1nc3ccccc3o1)N2` (stereo not drawn) [Compound 51], the pIC50 is 4.21.

Take `O=C1CCCC2=C1C(c1ccccc1)N=C(Nc1nc3ccccc3o1)N2` (stereo not drawn) [Compound 52]: the pIC50 is 4.46.

`CN(C)c1ccc(C2N=C(Nc3nc4ccccc4o3)NC3=C2C(=O)CCC3)cc1` (stereo not drawn) [Compound 53] had a pIC50 of 4.11.

Take `O=C1CCCC2=C1C(c1ccncc1Cl)N=C(Nc1nc3ccccc3o1)N2` (stereo not drawn) [Compound 55]: the pIC50 was 4.81.

Turning to `O=C1CCCC2=C1C(c1ccccc1Cl)N=C(Nc1nc3ccccc3o1)N2` (stereo not drawn) [Compound 57], the pIC50 is 5.58.

In turn, `O=C1CCCC2=C1C(c1ncccc1C(F)(F)F)N=C(Nc1nc3ccccc3o1)N2` (stereo not drawn) [Compound 58] gave a pIC50 of 5.18.

In the case of `O=C1CCCC2=C1C(c1cnccc1C(F)(F)F)N=C(Nc1nc3ccccc3o1)N2` (stereo not drawn) [Compound 59], the pIC50 is 5.18.

`O=C1CCCC2=C1C(c1c(Cl)cccc1Cl)N=C(Nc1nc3ccccc3o1)N2` (stereo not drawn) [Compound 60] had a pIC50 of 4.89.

`O=C1CCCC2=C1C(c1cccnc1Cl)N=C(Nc1nc3ccccc3o1)N2` (stereo not drawn) [Compound 61]: the pIC50 was 4.73.

Molecule `O=C1CCCC2=C1C(c1cccnc1Br)N=C(Nc1nc3ccccc3o1)N2` (stereo not drawn) [Compound 63] had a pIC50 of 4.84.

The molecule `Cn1ncc(Cl)c1C1N=C(Nc2nc3ccccc3o2)NC2=C1C(=O)CCC2` (stereo not drawn) [Compound 64] had a pIC50 of 4.44.

`Cc1ccsc1C1N=C(Nc2nc3ccccc3o2)NC2=C1C(=O)CCC2` (stereo not drawn) [Compound 65] showed a pIC50 of 5.04.

In turn, `O=C1CCCC2=C1C(c1ccccc1I)N=C(Nc1nc3ccccc3o1)N2` (stereo not drawn) [Compound 66] had a pIC50 of 5.94.

Regarding `O=C1CCCC2=C1C(c1ncccc1Br)N=C(Nc1nc3ccccc3o1)N2` (stereo not drawn) [Compound 67], the pIC50 is 6.19.

With `O=C1CCCC2=C1C(c1ccncc1Br)N=C(Nc1nc3ccccc3o1)N2` (stereo not drawn) [Compound 68], the pIC50 was 5.84.

For `O=C1CCCC2=C1C(c1n[nH]cc1Br)N=C(Nc1nc3ccccc3o1)N2` (stereo not drawn) [Compound 69], the pIC50 was 5.54.

Take `Cn1cc(Br)c(C2N=C(Nc3nc4ccccc4o3)NC3=C2C(=O)CCC3)n1` (stereo not drawn) [Compound 70]: the pIC50 is 5.54.

Take `O=C1CCCC2=C1C(c1ccncc1Br)N=C(Nc1nc3ccccc3o1)N2` (stereo not drawn) [Compound 71]: the pIC50 is 4.69.

Regarding `O=C1CCCC2=C1C(c1ccn[nH]1)N=C(Nc1nc3ccccc3o1)N2` (stereo not drawn) [Compound 73], the pIC50 is 4.84.

`Cc1cc(C2N=C(Nc3nc4ccccc4o3)NC3=C2C(=O)CCC3)n[nH]1` (stereo not drawn) [Compound 74] gave a pIC50 of 4.74.

Molecule `O=C1CCCC2=C1C(c1n[nH]cc1Cl)NC(Nc1nc3ccccc3o1)=N2` (stereo not drawn) [Compound 75] had a pIC50 of 5.54.

Consider `CC1=C(C(=O)Nc2ccccc2Cl)C(c2ccccc2Br)N=C(Nc2nc3ccccc3o2)N1` (stereo not drawn) [Compound 76], for which the pIC50 was 5.49.

Consider `CC1=C(C(=O)Nc2ccc(Cl)cc2)C(c2ccccc2Br)N=C(Nc2nc3ccccc3o2)N1` (stereo not drawn) [Compound 77], for which the negative logarithm of the IC50 (pIC50) was 5.29.

With `CC1=C(C(=O)Nc2ccccc2C)C(c2ccccc2Br)N=C(Nc2nc3ccccc3o2)N1` (stereo not drawn) [Compound 78], the pIC50 was 5.34.

On to `COc1ccc(NC(=O)C2=C(C)NC(Nc3nc4ccccc4o3)=NC2c2ccccc2Br)cc1` (stereo not drawn) [Compound 81], for which the pIC50 was 5.49.

`CC1=C(C(=O)n2ccc3ccccc32)C(c2ccccc2Br)N=C(Nc2nc3ccccc3o2)N1` (stereo not drawn) [Compound 82] gave a pIC50 of 4.74.

Regarding `CC1=C(C(=O)N(C)c2ccccc2C)C(c2ccccc2Br)N=C(Nc2nc3ccccc3o2)N1` (stereo not drawn) [Compound 83], the negative-log IC50 (pIC50) is 4.99.

`CC1=C(C(=O)Nc2ccon2)C(c2ccccc2Br)N=C(Nc2nc3ccccc3o2)N1` (stereo not drawn) [Compound 84] had a pIC50 of 5.24.

Regarding `CC1=C(C(=O)Nc2nncs2)C(c2ccccc2Br)N=C(Nc2nc3ccccc3o2)N1` (stereo not drawn) [Compound 86], the pIC50 is 5.49.

Consider `CC1=C(C(=O)NC2CCCCC2)C(c2ccccc2Br)N=C(Nc2nc3ccccc3o2)N1` (stereo not drawn) [Compound 89], for which the pIC50 was 5.04.

`CC1=C(C(=O)Nc2ccccc2)C(c2ccccc2Br)N=C(Nc2nc3ccccc3o2)N1` (stereo not drawn) [Compound 90] gave a pIC50 of 5.04.

In turn, `CC1=C(C(=O)N(C)C)C(c2ccccc2Br)N=C(Nc2nc3ccccc3o2)N1` (stereo not drawn) [Compound 91] showed a pIC50 of 4.69.

Molecule `CC1=C(C(=O)NCc2ccccc2)C(c2ccccc2Br)N=C(Nc2nc3ccccc3o2)N1` (stereo not drawn) [Compound 92] showed a pIC50 of 5.19.

In the case of `CC1=C(C(=O)Nc2nncs2)C2(CCCC2)N=C(Nc2nc3ccccc3o2)N1` [Compound 93], the pIC50 is 5.49.

Consider `CC1=C(C(=O)Nc2ccon2)C2(CCCC2)N=C(Nc2nc3ccccc3o2)N1` [Compound 94], for which the pIC50 was 5.19.

Consider `CC1=C(C(=O)Nc2nc3ccccc3s2)C2(CCCC2)N=C(Nc2nc3ccccc3o2)N1` [Compound 95], for which the pIC50 is 4.59.

The molecule `CC1=C(C(=O)Nc2ccon2)C(c2nn(C)cc2Cl)N=C(Nc2nc3ccccc3o2)N1` (stereo not drawn) [Compound 97] gave a pIC50 of 5.09.

In turn, `CC1=C(C(=O)Nc2nc3ccccc3s2)C(c2nn(C)cc2Cl)N=C(Nc2nc3ccccc3o2)N1` (stereo not drawn) [Compound 98] gave a pIC50 of 5.04.

On to `CC1=C(C(=O)Nc2nnc(-c3ccccc3)s2)C(c2nn(C)cc2Cl)N=C(Nc2nc3ccccc3o2)N1` (stereo not drawn) [Compound 100], for which the pIC50 was 5.44.

On to `CC1=C(C(=O)NC2CC2)C(c2nn(C)cc2Cl)N=C(Nc2nc3ccccc3o2)N1` (stereo not drawn) [Compound 101], for which the pIC50 is 4.74.

For the molecule `CC1=C(C(=O)Nc2nncs2)C(c2nn(C)cc2Cl)N=C(Nc2nc3ccccc3o2)N1` (stereo not drawn) [Compound 102], the pIC50 was 5.29.

For the molecule `CNC(=O)C1=C(C)NC(Nc2nc3ccccc3o2)=NC1c1nn(C)cc1Cl` (stereo not drawn) [Compound 105], the pIC50 is 4.79.

In the case of `CC1=C(C(=O)Nc2nc3ccccc3s2)C(c2n[nH]cc2Cl)N=C(Nc2nc3ccccc3o2)N1` (stereo not drawn) [Compound 107], the negative logarithm of the IC50 (pIC50) was 4.94.

Regarding `CC1=C(C(=O)Nc2nnc(-c3ccccc3)s2)C(c2n[nH]cc2Cl)N=C(Nc2nc3ccccc3o2)N1` (stereo not drawn) [Compound 108], the pIC50 is 5.29.

As to `CNC(=O)C1=C(C)NC(Nc2nc3ccccc3o2)=NC1c1n[nH]cc1Cl` (stereo not drawn) [Compound 109], the pIC50 is 4.74.

`CC1=C(C(=O)NC2CC2)C(c2n[nH]cc2Cl)N=C(Nc2nc3ccccc3o2)N1` (stereo not drawn) [Compound 110] showed a pIC50 of 4.69.

The molecule `CNC(=O)C1=C(C)NC(Nc2nc3ccccc3o2)=NC12CCCC2` [Compound 111] had a pIC50 of 4.69.

Turning to `CC1=C(C(=O)Nc2ccon2)C(c2nn(C)cc2Cl)N=C(Nc2nc3ccccc3o2)N1` (stereo not drawn) [Compound 112], the pIC50 was 5.04.
